Assay results as given in patent publication US5179089A, “Isoquinoline compounds, compositions and use” (Chinoin Gyogyszer es Vegyeszeti Termekek Gyara Rt., priority 1990, dated 1993).
Where two headings read alike, the source gives them in different places.

What was measured:
[1] = test system: histamine-induced constriction of isolated tracheal smooth muscle of guinea pig; assay: Inhibition of the histamine-induced constriction of isolated tracheal smooth muscle of guinea pig; details: Cavia porcellus, 0.25 h, isolated guinea pig trachea, read-out: Inhibition of the histamine-induced constriction of isolated tracheal smooth muscle of guinea pig pd'2 (converted)
Procedure: I Study on the Effects Against Spasmogenic Mediators [modified method of J. C. […] The investigation on isolated organs were carried out as follows. OHF Lt/R9 guinea pigs of both sexes weighing 300 to 400 g each were anaesthetized by pentobarbital. Their trachea was removed and sectioned in the opposite side to the site of smooth muscle in longitudinal direction. Subsequently, a strip-like preparation was obtained by […] cutting. […] A rest load of 0.5 g was used. Several washings were carried out during the incubation period of 30 minutes. The change in the tension of the tracheal smooth muscle was followed by using an isometric Grass FT-03 type tensiometer sensor device. A washing was made following the cumulative dose series of the given mediator (e.g. histamine). After reaching the base line, by 15 minutes after administration of the given concentration of the inhibitory (antiasthmatic) substance to be tested, the next cumulative dose series of the mediator was administered. In the case of an inhibitory action, the strength of effect, following the second dose series of the mediator, was […] in comparison to that of the first (control) series. For characterization of strength of the competitive antagonistic effect the pA2 value was determined according to the method of […] A pd'2 value was calculated [J. M. Van Rossum: Arch. Int.

[2] = LD50 on mouse; details: in vivo
[3] = test system: active local anaphylactic reaction; assay: Effect influencing the active local anaphylactic reaction on rat; type: in vivo, rat (female OFA); details: oral dose of 50 mg/kg, 30th minute after induction
Procedure: 1) The effect influencing the active local anaphylactic reaction was measured according to the method of M. Koltay [Arch. Allergy App. Immun. 71, 181 (1983)].
Female OFA rats weighing 160 to 180 g each were sensitized by bovine serum albumin (BSA) adsorbed to 50 μg of Al(OH)3 gel together with the simultaneous administration of Bordatella pertussis vaccine.
The anaphylactic reaction was elicited by injecting 100 μg of BSA into the right hind paw plant in the 14th day.
The measurements were carried out before and 30 minutes after eliciting the reaction. The animals were orally treated with the compound to be tested 1 hour before the injection of BSA. The results were expressed as percentage inhibition compared to the control group (average %±S.E.M.).

[4] = test system: carrageenin-induced rat paw edema; assay: Carrageenin-induced rat paw edema test; type: in vivo, rat (female CFY); details: Rattus norvegicus, po, 50 mg/kg (p.o.), read-out: Percentage of the protective effect
Procedure: Proc. Soc. Exp. Med. 111, 544 (1962)]. Female CFY rats weighing 100 to 120 g each were used after starvation for 24 hours. The inflammation was induced by injecting 0.1 ml of 1% carrageenin solution into the right hind paw plant. The severity of inflammation was determined by using an Ugo-Basile type plethysmometer. The measurement was carried out before and 1.5, 3 and 4.5 hours after induction of the inflammation. The animals were orally treated with the substance to be tested 1 hour before administration of carrageenin. The effect was expressed as percentage inhibition related to the control group.

[5] = LD50 on rat; details: in vivo, iv
[6] = test system: dextran-induced rat paw edema; assay: Dextran-induced rat paw edema test; type: in vivo; details: 50 mg/kg (p.o.)
Procedure: 3) Dextran-induced rat paw edema test The method of S. Gourvaisier and R. Ducrot [Arch. Int. Pharmacodyn. Ther. 102, 33 (1955)] was employed. The method described for the carrageenin edema test was followed, except that the measurements were carried out 30, 60, 90, 120 and 180 minutes after induction of the inflammation.

With `CCOc1cc2c(cc1OCC)C(=C(C#N)SCC(O)CN1CCOCC1)NCC2` (stereo not shown) [Example 18, 2-(6,7-diethoxy-1,2,3,4-tetrahydro-1-isoquinolinylidene)-2-[2-hydroxy-3-(4-morpholinyl)propyl]mercaptoacetonitrile] the IC50 [1] was 123 nM, the LD50 ([2]; iv, female mouse, read-out: LD50 i.v.) was 150 mg/kg and the LD50 ([2]; iv, male mouse, read-out: LD50 i.v.) was 166 mg/kg. For the same compound, the LD50 ([2]; po, female mouse, read-out: LD50 p.o.) was 1030 mg/kg, the LD50 ([2]; po, male mouse, read-out: LD50 p.o.) was 1200 mg/kg and the “Percentage of inhibition of the active local anaphylactic reaction” value [3] was -31%. It also gave a change in vivo at 50 mg/kg ([4]; 1.5 hours) of -35.8%, a change in vivo at 50 mg/kg ([4]; 3 hours) of -29.3% and a change in vivo at 50 mg/kg ([4]; 4.5 hours) of -28.4%. It also gave an LD50 ([5]; female rat) of 133 mg/kg, an LD50 ([5]; male rat) of 91.4 mg/kg and a Percentage of inhibition ([6]; 30 minutes) of 29.8%. For the same compound, the Percentage of inhibition ([6]; 60 minutes) was 38.7%, the Percentage of inhibition ([6]; 90 minutes) was 30.4% and the Percentage of inhibition ([6]; 120 minutes) was 26.3%. For the same compound, the Percentage of inhibition ([6]; 180 minutes) was 28.4%.
